These results are taken from publication PMC3164908 (European journal of medicinal chemistry, 2011).

“Also recorded” adds a separate entry of the source. Like-named read-outs stand apart in the source and are kept apart here. Some results are limits rather than exact numbers.

Data set [1] deals with multidrug-resistant strains of HIV. Conditions: cited from earlier work.
A further data set deals with MT-2 cell line. Description: Cell viability assay. The data set is classed as cell-based, human. The following applies: MTT assay, concentrations up to 100 μM. In general terms: Formazan colour is commonly taken as a measure of viable cells.
Another data set in a line: Solubility in water. The data set is classed as physicochemical.
For data set [2], the system named is TZM-BL (derived from Hela Cells). Description: Cytotoxicity screening, Promega CellTiter-Glo Luminescent Cell Viability Assay. The data set is classed as cell-based. Conditions: Homo sapiens, read-out: IC50 (μM), concentration that inhibits cell growth by 50%.

Consider `Cc1cn([C@H]2C[C@H](O)[C@](CO)(N=[N+]=[N-])O2)c(=O)[nH]c1=O` [4′-C-azidothymidine], for which the EC50 (commonly the concentration that produces a half-maximal response) in data set [1] was 340 nM.
For `[N-]=[N+]=N[C@]1(CO)O[C@@H](n2ccc(N)nc2=O)[C@@H](F)[C@@H]1O` [Compound 10, 1-(4′-azido-2′-deoxy-2′-fluoro-β -D-arabinofuranosyl)cytosine], the “cytotoxicity / effect on cell growth” value in the data set with MT-2 cell line is on record as “did not show significant cytotoxicity; also recorded: without significant cytotoxicity; also recorded: no significant effect on cell growth or any cytotoxic effect”. In “Solubility in water” (water), the solubility turned out to be 3.1 g in 100 g water.
In the case of `Cl.[N-]=[N+]=N[C@]1(CO)O[C@@H](n2ccc(N)nc2=O)[C@@H](F)[C@@H]1O` [Compound 11, 1-(4-azido-2-deoxy-2-fluoro)-β-D-arabinofuranosyl)cytosine hydrochloride salt], the IC50 in data set [2] was over 140 µM.
Regarding `Cl.[N-]=[N+]=N[C@]1(CO)O[C@@H](n2ccc(N)nc2=O)[C@@H](F)[C@@H]1O` [Compound 11], the “cytotoxicity / effect on cell growth” value in the data set with MT-2 cell line is reported as “did not show significant cytotoxicity; also recorded: without significant cytotoxicity; also recorded: no significant effect on cell growth or any cytotoxic effect”. The compound also returned a solubility in the data set “Solubility in water” of 14.3 g in 100 g water.
